What all share (assay type): in vivo
Data set [1] concerns leafminers flies, Liriomyza trifolii (Burgess). Put plainly: Field test of spinosad with or without adjuvant A3 against leafminer larvae on muskmelon. The settings on record: per sampled leaf, 3 days after treatment, acetamipirid 0.025%, spinosad 0.05%, adjuvant A3 0.4%. The method, then:
Example 10. The effect of adjuvant A3, obtained according to Example 5, was tested to determine whether its addition improve the activity of spinosad against leafminers flies, Liriomyza trifolii (Burgess). Spinosad is a metabolite produced by biosynthetic process by the actinomycetes Saccharopolyspora spinosa, and provides excellent crop protection with a relatively low toxicity to non-target organisms, including many beneficial insects. For that reason spinosad is accepted on organic farming systems. […] Addition of the spraying adjuvant increase the efficacy of spinosad based insecticide in controlling leafminers larvae (Larson, 1997, Arthrop. Manag. Test. 22:415-416).
The experiment was done on the Fundulea experimental field, which characteristics were already presented in Example 6. The muskmelon (Cucumis melo L., cv. Charentais) experimental plots were established on 19th of April, 2012, using 25 days old transplants, on a density equivalent to 12.000 transplants per ha. The experimental filed where experiment was plotted was previously cultivated with corn and was fertilized with 200 kg/ha equivalent complex fertilizer NPK 15:15:15 (Azomure ? ), on beginning of March. Herbicidation was done by application on the whole surface of a dose of 4 l/ha Stomp 330 EC, sprayed in a mixture with 450 l water per ha, 10 days before transplantation, and incorporated in soil with a by harrowing with a disc harrow.
Plots of 20 m^2 were made with edges of two untreated rows, in random blocks, with 4 repetitions on each treatment. Application of treatments were done with a backpack sprayer SG10 (Stihl AG, Waiblingen, Germany), by spraying from 40 cm, with a spraying pressure set-up to 275 kPa, using a nozzle with flat jet and low drift (TeeJett® flat-fan TT11002 model, Spraying Systems Co., Wheaton, IL, USA). Were applied […], one in the phenophase of 3...4 leaves and in the phenophase 6...8 leaves, as a second treatment. In phenophase 3...4 leaves, one day after the treatment with insecticide, was applied also a treatment with Previcur 607 SL (propamocarb 607 g/l) for controlling the downy mildew (Pseudoperonospora cubensis), on the whole area of the experiment. The experimental treatments were: • V1 - control, untreated for Liriomyza trifolii; • V2 - acetamipirid 0.025% (Mospilan 20 SG, 200 g/kg acetamipirid, Nippon Soda Company, Tokio, Japonia), equivalent 0.1 kg/ha in a spraying norm of 400 l/ha, considered as standard for treatment of leafminers flies larvae because is a systemic insecticide; • V3 - spinosad 0.05% (Laser 240 SC, 240 g/l spinosad, Dow AgroSciences, Indianapolis, USA), equivalent 0.2 kg/ha at a spraying norm of 400 l/ha; • V4 - spinosad 0.05% (Laser 240 SC, 240 g/l spinosad, Dow AgroSciences, Indianapolis, USA), equivalent 0.2 kg/ha at a spraying norm of 400 l/ha + adjuvant A3, according to Example 5, 0.4%, equiv. to 1.6 kg at a spraying norm of 400 l/ha.
The impact of each treatment on leafminer larvae mortality was estimated by counting the number of live and dead / paralyzed larvae, and also of the empty and total mines per each sampled leaf. A total of 10 leaves per experimental plot were collected at 3 days after treatment and examined in the laboratory for presence of mines in leaves and larvae status in the mines. The data were processed by analysis of variance (Statistica 10, StatSoft). Tab. 11.The influence of spray adjuvant A3 on the efficacy of spinosad in controlling the leafminers larvae on muskmelon.

Data set [2] deals with winter wheat (Triticum aestivum L.), cultivar Capo. Put plainly: Selenium biofortification of wheat grains by foliar sodium selenite, with or without adjuvant A1.2 (field experiment). To be noted: 300 l/ha; for Selenium content in the wheat grains (mcg/kg): applied at GS31; for Yield (kg/ha): yield with 86% dry matter. An excerpt:
Example 7. On the experimental field from Fundulea was done also an experiment in order to establish the effect of adjuvant A1.2 on the biofortification treatment with sodium selenite applied as foliar fertilizers on wheat. Se (IV) from the sodium selenite is a selenium species which are not translocated from the radicular system into the foliar one through xylem (Zhu et al., 2009, Trends Plant Sci. 14:436-442), thus an eventually biofortification of the wheat yield resulted from the treatment with selenite is the result of the selenite absorbed through cuticle and not of that absorbed by radicular system after leakage on soil. The soil on which was done the experiment has the characteristics presented in the above tab. 6, and the total selenium content (HF + HNO3 + HCl) is 0.197 mg/kg.
The experiment was done of experimental plots of 25 m^2, with winter wheat (Triticum aestivum L.), cultivar Capo, cultivated in similar conditions with those already presented in Example 6 regarding the agrotechnics, base fertilization before seeding and crop protection. The experiment was done in random blocks in a Latin square, 4 treatments in 4 repetitions. The 4 treatments were: • V1 - control, treated with water, • V2 - sprayed with a solution of sodium selenite pentahidrate, Na2SeO3.5 H2O, 0.0111%, equiv. 10 g Se/ha for a spraying norm of 300 l/ha; • V3 - sprayed with a solution of sodium selenite pentahidrate, Na2SeO3.5 H2O, 0.0222%, equiv. 20 g Se/ha for a spraying norm of 300 l/ha; • V4 - sprayed with a solution of sodium selenite pentahidrate, Na2SeO3.5 H2O, 0.0111 %, equiv. 10 g Se/ha for a spraying norm of 300 l/ha and 0.5% spraying adjuvant A1.2 Ex.2, equivalent to a dose of 1.5 kg/ha.
Application of the solutions was done with a backpack sprayer SG10 (Stihl AG, Waiblingen, Germany), by spraying from 40 cm, with a spraying pressure set-up to 275 kPa, using a nozzle with flat jet and low drift (TeeJett® flat-fan TT11002 model, Spraying Systems Co., Wheaton, IL, USA). The treatments were applied during the growth stages GS31 (5th April 2012). On the end of the vegetation season each repetition was separately harvested, the realized production being expressed in kg/ha with 86% dry matter. In the wheat grain selenium was determined, by atomic absorption spectrophotometry with hydride generation (Tinggi et al., 1992, J. Food Comp. Anal. 5, 269-280). The date were analyzed by application of the linear general model, to determine the average values and the significance differences at a probability level of 5% (Statistica 10, StatSoft, Tulsa, OK, US). Tab. 8. Influence of the adjuvant A1.2 done according to the invention on the biofortification treatment of wheat grains (cv. Capo) with selenium.

The subject of data set [3] is Tomato plants (Lycopersicum esculentum cv. Cristal F1). As to the kind of experiment: Protection of tomato plants against water stress by foliar glycine-betaine, with or without adjuvant A2 (greenhouse). How it is done: Example 9. It was tested the efficacy of adjuvant A2, obtained according to Ex.4 on the performances of glycine-betaine, compound with an osmoprotectant action, regarding the protection of tomato plants against water stress. Glycine - betaine presents a molecule with quaternary nitrogen, strongly polar, with a reduced penetrability on the hydrophobic plant cuticle.
Tomato plants (Lycopersicum esculentum cv. Cristal F1), transplants of 60 days, were re-potted in vegetation pots of 25 cm dia. and 50 cm height, on which was introduced a synthetic grown substrate enriched with nutrients for the first week of plant growth (Canna Terra Professional Plus, Canna International BV). The vegetation pots were maintained in greenhouse conditions, at 22±2°C during the day and 17±2°C during the night, with a photoperiod of 12 hours, supplemented with light with an intensity of 160 µE/m^2/s, from a metal halide lamp, when the light intensity was below 500 µE/m^2/s. […] The grown substrate contained initial nutrient reserves, thus the plants were fertilized only one time, at 28 days after transplantation, by the application of 100 ml of nutritive solution 1 g/l of fertilizer 20 - 8 - 20 (N-P2O5-K2O, Eurofertil, TimacAgro Romania). The experiment was organized in a random bloc with 4 repetitions for each treatment, each repetition including 5 plants. It was used purified glycine-betaine (99%, Sigma Aldrich, St. Louis, Mo, US). The experimental treatments included also controls, sprayed only with water, water stress control and unstressed control. These experimental treatments were: • V1 - control unstressed, sprayed with water; 2 treatments x 2 ml per plant, equivalent 100 l/ha; • V2 - control water stressed, sprayed with water; 2 treatments x 2 ml per plant, equivalent 100 l/ha; • V3 - water stressed, sprayed with glycine-betaine; 2 treatments x 2 ml 5 mM per plant, equivalent 58,5 g in 100l/ha; […]; […]; • V5 - water stressed, sprayed with glycine -betaine and adjuvant, 2 treatments x 2 ml solution 5 mM betaine + 1% adjuvant A2 per plant, equivalent 58,5 g betaine and 1 kg adjuvant A2 in 100l/ha.
Treatments were applied in the 2nd and 29th day after transplantation, by spraying each plant with the help of a glass atomizer with metal top and plastisol bulb (model 15-RD, DeVilbiss Healthcare, Somerset, PA, USA). The unstressed control was irrigated once every five day at 100% field capacity, and the water stressed plants were irrigated each two weeks at 100% field capacity. […] The data were processed by analysis of variance (Statistica 10, StatSoft).

The mark [4] stands for this setting: V3 water stressed, 2x 5 mM equiv. 58,5 g in 100 l/ha.
The mark [5] stands for this setting: V3 water stressed, 2x 5 mM equiv. 58,5 g in 100 l/ha, 8 weeks after transplantation.

On to `C/C(=N\C#N)N(C)Cc1ccc(Cl)nc1` [Acetamipirid, acetamipirid], for which, in data set [1] (First treatment), the Dead larvae was 0.1c, the Empty mines was found to be 0c, the Mines total came to 0.4a and the “Mines with live larvae” value came to 0.1c. Further, in data set [1] (Second treatment), the Dead larvae was determined as 0.3c, the Empty mines is on record as 0b, the Mines total amounted to 0.2a and the “Mines with live larvae” value turned out to be 0b.

Consider `O=[Se](O)O` [Na2SeO3.5 H2O, sodium selenite pentahidrate], for which, in data set [2] (equiv. 10 g Se/ha), the “Selenium content in the wheat grains (mcg/kg)” value was found to be 105b mcg/kg and the “Yield (kg/ha)” value was 4958a kg/ha. Besides, in data set [2] (equiv. 20 g Se/ha), the “Selenium content in the wheat grains (mcg/kg)” value is on record as 142a mcg/kg and the “Yield (kg/ha)” value came out at 4549b kg/ha.

As to `C[N+](C)(C)CC(=O)O` [glycine-betaine], in data set [3] (setting [4]), the “Leaves surfaces (mm^2)” value worked out at 587.58±4.92ab mm^2 and the “Number of Leaves” value is on record as 28.00±2.1b. In data set [3] (setting [5]), the “Plant height (cm)” value is reported as 47.30±3.42c cm and the “Root length (cm)” value is 45.50±2.39b cm. The “Average yield** (g ripened fruits / plant)” value in data set [3] (V3 water stressed, 2x 5 mM equiv. 58,5 g in 100 l/ha, production for 30 days cycle of flowering - fructification) is 223±28.2b g ripened fruits / plant. Besides, the “Leaves surfaces (mm^2)” value in data set [3] (V4 water stressed, 2x 5 mM equiv. 117 g in 100 l/ha) came out at 663.16±5.84a mm^2. Also, in data set [3] (V4 water stressed, 2x 5 mM equiv. 117 g in 100 l/ha, 8 weeks after transplantation), the “Root length (cm)” value worked out at 54.80±1.88b cm.

With spinosad, in data set [1] (First treatment), the Dead larvae was 1.8b, the Empty mines came to 3.3b, the Mines total came to 8.2b and the “Mines with live larvae” value is listed as 1.2b. Further, in data set [1] (Second treatment), the Dead larvae is 3.1a, the Empty mines is recorded as 2.7a, the Mines total came to 6.8b and the “Mines with live larvae” value worked out at 0.3a.
